The inhibition is the percentage by which the read-out fell short of the control. A word on the viability: it is a read-out of living cells in per cent, often relative to untreated cells. Read a low viability as a greater loss of cells. What is called IC50 is the concentration needed to halve the response being measured.

The source of these data is US20170129916A1, “NOVEL BETULINIC PROLINE IMIDAZOLE DERIVATIVES AS HIV INHIBITORS” (HETERO RESEARCH FOUNDATION, priority 2014, published 2017).

The subject of data set [1] is HIV-1 strains, for e.g., 92HT599. Briefly: Antiviral activity: p24 estimation in MT-2 cells infected with HIV-1. In kind it is cell-based. Conditions: Human immunodeficiency virus 1, MT2, MT-2 cells infected with HIV-1, p24, ~96 hours; for IC50: read-out: Antiviral activity IC50 (nM) Efficacy IC50. The gist of the method:
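MT-2 cells infected with HIV-1 (e.g. 92HT599), plated at 30,000 cells/well with compound (DMSO ≤1%) and incubated ~96 h. Supernatant p24 quantified by kit; percent inhibition relative to vehicle controls.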

Data set [2] in a line: Single dose oral pharmacokinetic study. In kind it is in vivo. Conditions: mouse, mice, 30 mg/kg, plasma; for AUC(0-t): read-out: Mice oral PK @30 mg/kg AUC 0-t; for Cmax: read-out: Mice oral PK @30 mg/kg Cmax. The gist of the method: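 Rats or mice received 30 mg/kg orally at 10 ml/kg dose volume. Retro-orbital blood was taken into K3 EDTA at defined intervals under light ether anesthesia and centrifuged to plasma. Plasma levels were measured by LC-MS-MS.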

Description for in vitro: On day 1 calculate the number of cells required for the assay and seed 3×10^4 cells in 200 μl per well. Weigh the compound and dissolve it in DMSO to get 10 mM stock which is further diluted to 3 mM and 1 mM. The drugs from these stocks were added to plate to get final concentration of 100 μM, 30 μM and 10 μM. […] Incubate for 4 days in 5% CO2 incubator at 37° C. On day 4, 100 μl of medium was removed from each well without disturbing the cells. Add 10 μl of MTT reagent and incubate for 4 hours at 5% CO2 incubator at 37° C. for formation of crystals. Add 200 μl of 0.1N acidic isopropanol to dissolve the crystals and read the plate at 590 nm.

As for `C=C(C)[C@@H]1CC[C@]2(C(=O)N3CCC[C@H]3c3ncc(-c4ccc(C)c(F)c4)[nH]3)CC[C@]3(C)[C@H](CC[C@@H]4[C@@]5(C)CC[C@H](OC(=O)[C@H]6C[C@@H](C(=O)O)C6(C)C)C(C)(C)[C@@H]5CC[C@]43C)[C@@H]12` [Compound 2, (1R,3S)-3-((((1R,3aS,5aR,5 bR,7aR,9S,11aR,11bR,13aR,13bR)-3a-((S)-2-(5-(3-fluoro-4-methylphenyl)-1H-imidazol-2-yl)pyrrolidine-1-carbonyl)-5a,5b,8,8,11a-pentamethyl-1-(prop-1-en-2-yl)icosahydro-1H-cyclopenta[a]chrysen-9-yl)oxy)carbonyl)-2,2-dimethylcyclobutane-1-carboxylic acid], in data set [1], the inhibition at 0.1 µM was 0% and the inhibition at 1 µM was 97%. Besides, in “in vitro”, the viability at 4 days, 10 μM worked out at 64%; the viability at 4 days, 30 μM came out at 31%; the viability at 4 days, 100 μM was found to be 5%.

`C=C(C)[C@@H]1CC[C@]2(C(=O)N3CCC[C@H]3c3ncc(-c4ccc(OCC)cc4)[nH]3)CC[C@]3(C)[C@H](CC[C@@H]4[C@@]5(C)CC[C@H](OC(=O)[C@H]6C[C@@H](C(=O)O)C6(C)C)C(C)(C)[C@@H]5CC[C@]43C)[C@@H]12` [Compound 5, (1R,3S)-3-((((1R,3aS,5aR,5bR,7aR,9S,11aR,11bR,13aR,13bR)-3a-((S)-2-(5-(4-ethoxyphenyl)-1H-imidazol-2-yl)pyrrolidine-1-carbonyl)-5a,5b,8,8,11a-pentamethyl-1-(prop-1-en-2-yl)icosahydro-1H-cyclopenta[a]chrysen-9-yl)oxy)carbonyl)-2,2-dimethylcyclobutane-1-carboxylic acid]: in data set [1], the inhibition at 0.1 µM is 0% and the inhibition at 1 µM is 100%. In the data set “in vitro”, this molecule returned a viability at 4 days, 10 μM of 100%; a viability at 4 days, 30 μM of 100%; a viability at 4 days, 100 μM of 98%.

As for `C=C(C)[C@@H]1CC[C@]2(C(=O)N3CCC[C@H]3c3nc(-c4ccc(OC)c(F)c4)c[nH]3)CC[C@]3(C)[C@H](CC[C@@H]4[C@@]5(C)CC[C@H](OC(=O)[C@H]6C[C@@H](C(=O)O)C6(C)C)C(C)(C)[C@@H]5CC[C@]43C)[C@@H]12` [Compound 25, (1R,3S)-3-((((1R,3aS,5aR,5bR,7aR,9S,11aR,11bR,13aR,13bR)-3a-((S)-2-(4-(3-fluoro-4-methoxyphenyl)-1H-imidazol-2-yl)pyrrolidine-1-carbonyl)-5a,5b,8,8,11a-pentamethyl-1-(prop-1-en-2-yl)icosahydro-1H-cyclopenta[a]chrysen-9-yl)oxy)carbonyl)-2,2-dimethylcyclobutane-1-carboxylic acid], in data set [1], the inhibition at 0.1 µM was 89% and the inhibition at 1 µM was 99%. In “in vitro”, this molecule showed a viability at 4 days, 10 μM of 65%; a viability at 4 days, 30 μM of 32%; a viability at 4 days, 100 μM of 11%.

As to `C=C(C)[C@@H]1CC[C@]2(C(=O)N3CCC[C@H]3c3ncc(-c4ccc(C)c(F)c4)[nH]3)CC[C@]3(C)[C@H](CC[C@@H]4[C@@]5(C)CC[C@H](OC(=O)CC(C)(C)C(=O)O)C(C)(C)[C@@H]5CC[C@]43C)[C@@H]12` [Compound 40], in data set [1], the inhibition at 0.1 µM was 29% and the inhibition at 1 µM is 99%. Besides, in “in vitro”, the viability at 4 days, 10 μM came out at 80%; the viability at 4 days, 30 μM was determined as 48%; the viability at 4 days, 100 μM is 25%.

As to `CC(C)(CC(=O)O[C@H]1CC[C@]2(C)[C@H]3CC[C@@H]4[C@H]5[C@H](C(C)(O)CO)CC[C@]5(C(=O)N5CCC[C@@H]5c5nc(-c6ccccc6)no5)CC[C@@]4(C)[C@]3(C)CC[C@H]2C1(C)C)C(=O)O` (stereo partly drawn) [Compound 42, 4-(((1R,3aS,5aR,5bR,7aR,9S,11aR,11bR,13aR,13bS)-1-(1,2-dihydroxypropan-2-yl)-5a,5b,8,8,11a-pentamethyl-3a-((R)-2-(3-phenyl-1,2,4-oxadiazol-5-yl)pyrrolidine-1-carbonyl)icosahydro-1H-cyclopenta[a]chrysen-9-yl)oxy)-2,2-dimethyl-4-oxobutanoic acid], in data set [1], the inhibition at 0.1 µM is 63% and the inhibition at 1 µM was 73%. Further, in “in vitro”, the viability at 4 days, 0.1 nM was 94% and the viability at 4 days, 1 nM is 94%.

As to `CC(C)(CC(=O)O)CC(=O)O[C@H]1CC[C@]2(C)[C@H]3CC[C@@H]4[C@H]5[C@H](C6(C)CC6)CC[C@]5(C(=O)N5CCC[C@H]5c5ncc(-c6cccc(F)c6)[nH]5)CC[C@@]4(C)[C@]3(C)CC[C@H]2C1(C)C` [Compound 64, 5-(((1R,3aS,5aR,5bR,7aR,9S,11aR,11bR,13aR,13bR)-3a-((S)-2-(5-(3-fluorophenyl)-1H-imidazol-2-yl)pyrrolidine-1-carbonyl)-5a,5b,8,8,11a-pentamethyl-1-(1-methylcyclopropyl)icosahydro-1H-cyclopenta[a]chrysen-9-yl)oxy)-3,3-dimethyl-5-oxopentanoic acid], the concentration for half-maximal inhibition (IC50) in data set [1] was 14.6 nM. Further, in data set [2], the AUC(0-t) amounted to 105 µg·h/mL and the Cmax is 5250 ng/mL.

In the case of `CC(C)(CC(=O)O[C@H]1CC[C@]2(C)[C@H]3CC[C@@H]4[C@H]5[C@H](C6(C)CC6)CC[C@]5(C(=O)N5CCC[C@H]5c5ncc(-c6cccc(F)c6)[nH]5)CC[C@@]4(C)[C@]3(C)CC[C@H]2C1(C)C)C(=O)O` [Compound 65, 4-(((1R,3aS,5aR,5bR,7aR,9S,11aR,11bR,13aR,13bR)-3a-((S)-2-(5-(3-fluorophenyl)-1H-imidazol-2-yl)pyrrolidine-1-carbonyl)-5a,5b,8,8,11a-pentamethyl-1-(1-methylcyclopropyl)icosahydro-1H-cyclopenta[a]chrysen-9-yl)oxy)-2,2-dimethyl-4-oxobutanoic acid], the IC50 in data set [1] was 15.7 nM. In data set [2], the AUC(0-t) was determined as 203 µg·h/mL and the Cmax came to 13300 ng/mL.

On to `COCCOc1ccc(-c2cnc([C@@H]3CCCN3C(=O)[C@]34CC[C@@H](C5(C)CC5)[C@@H]3[C@H]3CC[C@@H]5[C@@]6(C)CC[C@H](OC(=O)CC(C)(C)C(=O)O)C(C)(C)[C@@H]6CC[C@@]5(C)[C@]3(C)CC4)[nH]2)cc1` [Compound 66], for which the IC50 in data set [1] was 0.73 nM. For the same molecule, in data set [2], the AUC(0-t) stood at 62.1 µg·h/mL and the Cmax came to 6590 ng/mL.

Turning to `COCCO[C@@H]1C[C@@H](c2nc(-c3ccc(F)cc3)c[nH]2)N(C(=O)[C@]23CC[C@@H](C4(C)CC4)[C@@H]2[C@H]2CC[C@@H]4[C@@]5(C)CC[C@H](OC(=O)CC(C)(C)C(=O)O)C(C)(C)[C@@H]5CC[C@@]4(C)[C@]2(C)CC3)C1` [Compound 67, 4-(((1R,3aS,5aR,5bR,7aR,9S,11aR,11bR,13aR,13bR)-3a-((2S,4R)-2-(4-(4-fluorophenyl)-1H-imidazol-2-yl)-4-(2-methoxyethoxy)pyrrolidine-1-carbonyl)-5a,5b,8,8,11a-pentamethyl-1-(1-methylcyclopropyl)icosahydro-1H-cyclopenta[a]chrysen-9-yl)oxy)-2,2-dimethyl-4-oxobutanoic acid], the half-inhibitory concentration (IC50) in data set [1] is 0.44 nM. For the same molecule, in data set [2], the AUC(0-t) was determined as 247 µg·h/mL and the Cmax was found to be 12300 ng/mL.

Turning to `CC(C)(CC(=O)O[C@H]1CC[C@]2(C)[C@H]3CC[C@@H]4[C@H]5[C@H](C6(C)CC6)CC[C@]5(C(=O)N5CCC(c6ncc(-c7ccccc7)[nH]6)CC5)CC[C@@]4(C)[C@]3(C)CC[C@H]2C1(C)C)C(=O)O` [Compound 68, 2,2-dimethyl-4-oxo-4-(((1R,3aS,5aR,5bR,7aR,9S,11aR,11bR,13aR,13bR)-5a,5b,8,8,11a-pentamethyl-1-(1-methylcyclopropyl)-3a-(4-(5-phenyl-1H-imidazol-2-yl)piperidine-1-carbonyl)icosahydro-1H-cyclopenta[a]chrysen-9-yl)oxy)butanoic acid], the IC50 in data set [1] is 12.8 nM. In data set [2], the AUC(0-t) came out at 23.5 µg·h/mL and the Cmax came out at 2020 ng/mL.

For `CC(C)(CC(=O)O)CC(=O)O[C@H]1CC[C@]2(C)[C@H]3CC[C@@H]4[C@H]5[C@H](C6(C)CC6)CC[C@]5(C(=O)N5CCC[C@H]5c5ncc(-c6ccc(F)cc6)[nH]5)CC[C@@]4(C)[C@]3(C)CC[C@H]2C1(C)C` [Compound 70, 5-(((1R,3aS,5aR,5bR,7aR,9S,11aR,11bR,13aR,13bR)-3a-((S)-2-(5-(4-fluorophenyl)-1H-imidazol-2-yl)pyrrolidine-1-carbonyl)-5a,5b,8,8,11a-pentamethyl-1-(1-methylcyclopropyl)icosahydro-1H-cyclopenta[a]chrysen-9-yl)oxy)-3,3-dimethyl-5-oxopentanoic acid], in data set [1], the inhibition at 0.1 µM was 84% and the inhibition at 1 µM is 99%. For the same molecule, in data set [2], the AUC(0-t) turned out to be 172 µg·h/mL and the Cmax was found to be 10000 ng/mL.
